{
  "source": "PubChem BioAssay AID651870",
  "about": "(NMMLSC, 2012)",
  "data": [
    {"system": "AM2.2-beta2AR cells viability, CellTiter-Glo luminescence, 18 h", "test": "cell toxicity in β2-adrenergic receptor AM2.2 line, concentration-response, toxicity counterscreen for β2-adrenergic receptor internalization ligand project, cell-based, CellTiter-Glo luminescent readout, Powder Set 4 (AID 651870)", "units": {"EC50": "µM"}, "values": [
      {"smiles": "CCCCC(=O)Nc1ccc(S(=O)(=O)N2CCCCC2c2cccnc2)cc1", "note": "(stereo not drawn)", "EC50": 8.76},
      {"smiles": "Cc1ccc(S(=O)(=O)N2CCCCC2C(=O)N2CCN(c3ccc(C(F)(F)F)cn3)CC2)cc1", "note": "(stereo not drawn)", "EC50": 12.8},
      {"smiles": "CN(CC(=O)N1CCN(c2cccc(C(F)(F)F)c2)CC1)S(=O)(=O)c1ccc(F)cc1", "EC50": 31.9}
    ]}
  ]
}
